One compound from patent publication US8507545B2, “Cytotoxic T cell activator comprising EP4 agonist” (National University Corporation, Hamamatsu University …, priority 2007, dated 2013) can be followed below.

Structures are written as SMILES.

Test [1] relates to TRP-2-specific CTLs. The test is described as follows: Activation of cytotoxic T cells in isolated Langerhans cells co-cultured with lymphocytes. Type of test: cell-based, C57BL/6(B6) mouse. How it is done: A given area of an auricle epidermal sheet was removed from the corneal layer of one auricle of each C57BL/6(B6) mouse, and trypsinized to yield an epidermal cell suspension. The epidermal cell suspension obtained was subjected to panning using an antibody specific for I-A^b antigen to isolate epidermal Langerhans cells. After each test substance (TRP-2 (concentration; 10 μg/mL) and Compound A-(1) (1 μM)) was added to the Langerhans cells isolated (cell density; 10^5 cells per mL), the cells were cultured with a medium (cRPMI1640 medium; Sigma-Aldrich Japan). Half a day later, the cells were co-cultured with splenocytic lymphocytes isolated from […] for 7 days. Subsequently, by a flowcytometric analysis (FACScaliber; Becton, Dickinson and Company.) using a tetramer (Medical & Biological Laboratories Co., Ltd.), the frequency of TRP-2-specific CTLs was determined relative to the total number of mononucleocytes in the medium as 100. Three experimental groups were established: (1) a group with no treatment, (2) a group with the addition of TRP-2, and (3) a group with the addition of both TRP-2 and Compound A-(1).

Test [2] relates to TRP-2-specific CTLs. The test is described as follows: Activation of cytotoxic T cells in cervical lymph nodes after tape stripping (TRP-2 tetramer flow cytometry). Type of test: in vivo, C57BL/6(B6) mice. The settings on record: for Ratio of TRP-2-specific CTLs: Example 1(1), cervical lymph nodes one week after application, relative to total mononucleocytes as 100. How it is done:
The corneal layers of the auricles of C57BL/6(B6) mice were destroyed by repeating a stripping procedure using an adhesive tape in 10 cycles, and an antigen peptide or EP4 agonist was applied as a test substance. The antigen peptide used was a melanoma-specific antigen peptide (Accord K.K. Peptide Business Department; hereinafter abbreviated TRP-2) in solution in 70% ethanol; 10 μg was applied to one side of each auricle. The EP4 agonist used was 11α,15α,-dihydroxy-9-oxo-16-(3-methoxymethylphenyl)-17,18,19,20-tetranol-3,7-dithiaprost-13E-enoic acid (hereinafter abbreviated Compound A-(1)) in solution in a mixed solvent of acetone:olive oil=10:1; 20 μL of 100 μM solution was applied to one side of each auricle. One week after application of the test substance, the cervical lymph nodes were removed. The frequency of TRP-2-specific CTLs was determined relative to the total number of mononucleocytes in the cervical lymph nodes as 100 by a flowcytometric analysis (FACScaliber; Becton, Dickinson and Company.) with a tetramer (Medical & Biological Laboratories Co., Ltd.). Four experimental groups were established: (1) a group undergoing tape stripping (hereinafter abbreviated TS) alone, (2) a group undergoing TS followed by application of TRP-2, (3) a group undergoing TS followed by application of Compound A-(1), and (4) a group undergoing TS followed by application of TRP-2 and Compound A-(1).
Note that the melanoma-specific antigen peptide TRP-2 was synthesized on the basis of a partial sequence described in the aforementioned Non-patent Document 1 (SEQ ID NO. 1) (Accord K.K. Peptide Business Department).
The same procedures as Example 1(1) were followed except that the EP4 agonists used were 4-[(2-{(2R)-2-[(1E,3S)-4-(4-fluorophenyl)-3-hydroxybut-1-enyl]-5-oxopyrrolidin-1-yl}ethyl)sulfanyl]butanoic acid (hereinafter abbreviated Compound L-(1)) and 4-{[2-((1R,2R,3R)-3-hydroxy-2-{(1E,3S)-3-hydroxy-4-[3-(methoxymethyl)phenyl]but-1-enyl}-5-oxocyclopentyl)ethyl]sulfanyl}butanoic acid (hereinafter abbreviated Compound M-(1)); the action of each compound to activate cytotoxic T cells was evaluated. Four experimental groups were established: (1) a group undergoing TS alone, (2) a group undergoing TS followed by application of TRP-2, (3) a group undergoing TS followed by application of TRP-2 and Compound L-(1), and (4) a group undergoing TS followed by application of TRP-2 and Compound M-(1).

For another test, the system named is B16 melanoma cells. Nature of the test: Melanoma growth suppressing action. Type of test: in vivo, B6 mouse. The conditions noted are these: for tumor diameter compared with the experimental group (1): FIG. 1. On the procedure:
The corneal layer was removed from the right auricle of each B6 mouse by TS in the same manner as Example 1, and test substances (TRP-2 and Compound A-(1)) were applied there; 2 weeks later, the left auricle was treated in the same manner. The test substances applied to both ears were used in the same combination; TRP-2 was applied at 10 μg for one side of each auricle, and Compound A-(1) was applied at 20 μl, of 100 μM solution for one side of each auricle. Four days after the above-described treatment, each mouse received 2×10^5 B16 melanoma cells (RIKEN's Cell Bank) by subcutaneous transplantation, and examined for tumor growth. Experimental groups were established as in Example 1(1) (5 animals in each group).
Tumor diameter (mm), as an index of tumor growth, was measured in each group at various days after inoculation of B16 melanoma cells; the results are shown in FIG. 1.

[3] abbreviates: TS followed by application of Compound A-(1) alone, experimental group (3).
The mark [4] stands for this setting: TS followed by application of TRP-2 and Compound A-(1), experimental group (4).

Consider `COCc1cccc(C[C@H](O)/C=C/[C@H]2[C@H](O)CC(=O)[C@@H]2SCCCSCC(=O)O)c1` [Compound A-(1), 11α,15α,-dihydroxy-9-oxo-16-(3-methoxymethylphenyl)-17,18,19,20-tetranol-3,7-dithiaprost-13E-enoic acid], for which the “Ratio of TRP-2-specific CTLs” value in the test with TRP-2-specific CTLs [1] (addition of both TRP-2 (10 μg/mL) and Compound A-(1) (1 μM), 7 days co-culture, relative to total mononucleocytes in the medium as 100) is 6.6; with TRP-2-specific CTLs [2] (TS followed by application of TRP-2 and Compound A-(1)), 0.63; with TRP-2-specific CTLs [2] (TS followed by application of the test substance alone), 0.55. For the same compound, the “action of inducing TRP-2-specific CTLs compared with TRP-2” value in the test on TRP-2-specific CTLs [1] (isolated Langerhans cells) is “equivalent”. Besides, in the test on TRP-2-specific CTLs [2] (TS followed by application of Compound A-(1)), the “ratio of TRP-2-specific CTLs in cervical lymph nodes compared with the group undergoing TS alone” value is “increased”. Further, the tumor growth rates entry with B16 melanoma cells (setting [3]) and in the test with B16 melanoma cells (setting [4]) was “decreased” in each case. The “tumor diameter compared with the experimental group (1)” value with B16 melanoma cells (setting [3]) and with B16 melanoma cells (setting [4]) was “smaller” throughout. Also, the “take of B16 melanoma cells” value in the test with B16 melanoma cells (TS followed by application of TRP-2 and Compound A-(1), experimental group (4), 5 animals) is on record as “did not take in any animals”.
